Columns and labels:
[1] = system: global ischaemia in adult rats; assay: Global ischaemia by four-vessel occlusion, apoptosis by TUNEL method after 5 d reperfusion; format: in vivo; details: R5d
Excerpt: (§1) Global ischaemia was induced in adult rats according to the conventional four-vessel occlusion method [(a) Martín de la Vega C, Burda J, Nemethova M, Quevedo C, Alcázar A, Martín M E, Salinas M. Possible mechanisms involved in the down-regulation of translation during transient global ischaemia in the rat brain. Biochem J 2001, 357, 819-826; (b) García-Bonilla L, Cid C, Alcázar A, Burda J, Ayuso I, Salinas M. Regulation proteins of eukaryotic initiation factor 2-alpha subunit (eIF2a) phosphatase, under ischemic reperfusion and tolerance. J Neurochem 2007, 103, 1368-1380; (c) Ayuso M I, Hernández-Jiménez M, Martín M E, Salinas M, Alcázar A. New hierarchical phosphorylation pathway of the translational repressor eIF4E-binding protein 1 (4E-BP1) in ischemia-reperfusion stress. J Biol Chem 2010, 285, 34355-34363].
(§2) Therefore, the two vertebral arteries were completely cauterized, and after 24 h ischaemia is induced by carotid occlusion by means of small clamps for 15 min; the clamps were then removed and reperfusion was performed. After 5 d (R5d), the animals were sacrificed. The animals were treated with cholesteronitrone F2, diluted in 10% ethanol in saline solution as a carrier, administered intraperitoneally from the beginning of the reperfusion period. Ten animals were tested; one of the five animals treated with carrier died 2 d after reperfusion. All the protocols used in the experiments with animals were performed according to the guidelines approved by the Ethics Committee of Hospital Ramón y Cajal (Madrid). In the model of four-vessel occlusion cerebral ischaemia in rats, after a brief period of ischaemia delayed neurodegeneration is produced in the CA1 region of the hippocampus [(a) Kirino T. Delayed neuronal death. Neuropathology 2000, 20, S95-S97; (b) Pulsinelli W A, Brierley J B, Plum F. Temporal profile of neuronal damage in a model of transient forebrain ischaemia. […]

[2] = system: global ischaemia in adult rats; assay: Global ischaemia by four-vessel occlusion, neuronal death by Fluoro-Jade B after 5 d reperfusion; format: in vivo; details: R5d, 0.1 mg/kg intraperitoneally
Excerpt: as §1, §2

[3] = system: primary neuronal cultures taken from the cerebral cortex of rats; assay: Long-term neuroprotection in neuronal cultures exposed to OGD 4 h and reperfusion for 5 d (R5d), MTT; format: cell-based
Method: To evaluate the neuroprotective power of cholesteronitrones F2 and F3 against ischaemic damage in cultured neurons and simulate long-term reperfusion conditions, the cultures were exposed to OGD for 4 h, and the cells were then subjected to reperfusion for 5 d (R5d).
Cholesteronitrones F2 and F3 (at concentrations of 1.0 and 5.0 μM) were added at the beginning of the reperfusion period and after 48 h of reperfusion, to thus evaluate their long-term neuroprotective power, again using the reference molecule citicoline, according to the protocol of the MTT (see above).

[4] = system: primary neuronal cultures taken from the cerebral cortex of rats; assay: Neuroprotection in primary neuronal cultures exposed to OGD 4 h and 24 h reperfusion (MTT cell viability); format: cell-based; details: for neuronal viability (versus 100% control): added at beginning of reperfusion, OGD 4 h, R24h
Excerpt: The neuroprotective power of cholesteronitrones F2 and F3 has been determined in primary neuronal cultures, cultured from 6 to 8 days, taken from the cerebral cortex of rats (Quevedo, C, Salinas, M, Alcázar, A. Initiation factor 2B activity is regulated by protein phosphatase 1, which is activated by the mitogen-activated protein kinase-dependent pathway in insulin-like growth factor 1-stimulated neuronal cells. J. Biol. Chem. 2003, 278, 16579-16586), and subjected to oxygen-glucose deprivation (OGD) (Chioua M, Sucunza D, Soriano E, Hadjipavlou-Litina D, Alcázar A, Ayuso I, Oset-Gasque M J, González M P, Monjas L, Rodríguez-Franco M I, Marco-Contelles J, Samadi A. α-aryl-N-alkyl nitrones, as potential agents for stroke treatment: synthesis, theoretical calculations, antioxidant, anti-inflammatory, neuroprotective, and brain-blood barrier permeability properties. J Med Chem. 2012, 55, 153-168), according to the following protocol:
Cell viability was measured using 3-(4,5-dimethylthiazol-2-yl)-2,5-diphenyl tetrazolium bromide (MTT).
Cholesteronitrones F2 and F3, in a range of concentrations from 0.1 to 100 μM, and from 0.5 to 10 μM, respectively, were added at the beginning of the reperfusion period to evaluate their neuroprotective power, using citicoline, a well-known neuroprotective agent, as a reference compound (Adibhatla, R M, Hatcher, J F, Dempsey, R J. Citicoline: neuroprotective mechanisms in cerebral ischemia. J. Neurochem. 2002, 80, 12-23). Citicoline was tested at variable concentrations, between 1 μM and 1 mM, a neuroprotective effect being found at 10 and 100 μM (87.4 and 88.1%, respectively), the effect of 100 μM being significant compared with the value obtained at R24h (analysis of variance (ANOVA), p<0.0021; and p<0.01, post-Dunnett test].

[5] = 1 μM, added at the beginning of reperfusion
[6] = 5 μM, added at the beginning of reperfusion

`CC(C)CCC[C@@H](C)[C@H]1CC[C@H]2[C@@H]3CCC4=C/C(=[N+](\C)[O-])CC[C@]4(C)[C@H]3CC[C@]12C` [cholesteronitrone F2, (E)-N-((8S,9S,10R,13R,14S,17R)-10,13-dimethyl-17-((R)-6-methylheptan-2-yl)-7,8,9,11,12,13,14,15,16,17-decahydro-1H-cyclopenta[a]phenanthren-3(2H,6H,10H)-ylidene)methanamine oxide] was tested, and the “neuronal apoptotic death, TUNEL-positive” value ([1]; CA1 area, carrier 64.1±7.1) was 48.5±0.4 nuclei per field, the “neuronal apoptotic death, TUNEL-positive” value ([1]; cerebral cortex, carrier 7.2±3.8) was 1±0.5 nuclei per field and the “neuronal apoptotic death, TUNEL-positive” value ([1]; lateral cortex, carrier 13.3±6.2) was 4.3±1.4. For the same compound, the “neuronal death, Fluoro-Jade B” value ([2]; CA1 region, saline/carrier 70.4±2.4) was 55.1±3.4 cells per field, the “neuronal death, Fluoro-Jade B” value ([2]; cerebral cortex, carrier 6.7±3.5) was 0±0.1 cells per field and the “neuronal death, Fluoro-Jade B” value ([2]; lateral cortex, carrier 13.4±3.6) was 6.3±2.2. The “neuronal viability in R5d experiment (versus 100% control)” value ([3]; 1 μM, added after 48 h of reperfusion) was 95.7%, the “neuronal viability in R5d experiment (versus 100% control)” value [3, 5] was 110.6% and the “neuronal viability in R5d experiment (versus 100% control)” value [3, 6] was 118.2%. The “Neuroprotection (%)” value ([4]; 0.1 μM, OGD conditions) was 9.6 ± 0.5%, the “Neuroprotection (%)” value ([4]; 0.5 μM, OGD conditions) was 49.3 ± 3.6% and the “Neuroprotection (%)” value ([4]; 1.0 μM, OGD conditions) was 54.3 ± 1.3 %. For the same compound, the “neuronal viability (versus 100% control)” value ([4]; 1 μM) was 89.1%, the “neuroprotection compared with citicoline” value ([4]; 5 μM, OGD conditions) was “significantly higher neuroprotection than that observed for citicoline” and the “Neuroprotection (%)” value ([4]; 5.0 μM, OGD conditions) was 80.7 ± 2.7 %. For the same compound, the “neuronal viability (versus 100% control)” value ([4]; 5 μM) was 95.5%, the “Neuroprotection (%)” value ([4]; 10 μM, OGD conditions) was 47.2 ± 1.4% and the “Neuroprotection (%)” value ([4]; 50 μM, OGD conditions) was <0%. For the same compound, the “Neuroprotection (%)” value ([4]; 100 μM, OGD conditions) was <0%.

With `CC(C)CCC[C@@H](C)[C@H]1CC[C@H]2[C@@H]3CCC4=C/C(=[N+](/C)[O-])CC[C@]4(C)[C@H]3CC[C@]12C` [cholesteronitrone F3, (Z)—N-((8S,9S,10R,13R,14S,17R)-10,13-dimethyl-17-((R)-6-methylheptan-2-yl)-7,8,9,11,12,13,14,15,16,17-decahydro-1H-cyclopenta[a]phenanthren-3(2H,6H,10H)-ylidene)methanamine oxide] the “neuronal viability in R5d experiment (versus 100% control)” value [3, 5] was 105.6%, the “neuronal viability in R5d experiment (versus 100% control)” value ([3]; 5 μM, added after 48 h of reperfusion) was 97.8% and the “neuronal viability in R5d experiment (versus 100% control)” value [3, 6] was 118.6%. The “Neuroprotection (%)” value ([4]; 0.5 μM, OGD conditions) was <0%, the “Neuroprotection (%)” value ([4]; 1.0 μM, OGD conditions) was 18.8 ± 1.1% and the “Neuroprotection (%)” value ([4]; 5.0 μM, OGD conditions) was 21.7 ± 1.2%. For the same compound, the “Neuroprotection (%)” value ([4]; 10 μM, OGD conditions) was 0.8 ± 0.07% and the “significant increase of neuronal viability during reperfusion” value ([4]; 1 or 5 μM, compared with R24h) was “not”.

In the case of `C[N+](C)(C)CCOP(=O)(O)OP(=O)([O-])OC[C@H]1O[C@@H](n2ccc(N)nc2=O)[C@H](O)[C@@H]1O` [citicoline, reference compound], the “neuronal viability in R5d experiment (versus 100% control)” value ([3]; 100 μM, added after 48 h of reperfusion) is reported as 74.6%, the “neuronal viability in R5d experiment (versus 100% control)” value ([3]; 100 μM, added at the beginning of reperfusion) is reported as 76.0% and the “neuronal viability (versus 100% control)” value ([4]; 10 μM) is reported as 87.4%. For the same compound, the “Neuroprotection (%)” value ([4]; 100 μM, OGD conditions) was 50.2 ± 1.26% and the “neuronal viability (versus 100% control)” value ([4]; 100 μM) was 88.1%.

Source: patent publication US10071106B2, “Steroidal nitrones for the treatment and prevention of a cerebral stroke or ischaemia, alzheimer and parkinson disease and amyotrophic lateral sclerosis” (FUNDACIÓN PARA LA INVESTIGACIÓN BIOMÉDICA DEL HOSPITAL …, priority 2013, dated 2018)
